Results on 20 compounds are retold here after patent US20240239788A1, “SMALL MOLECULE INHIBITORS OF KRAS G12D MUTANT” (Merck Sharp & Dohme LLC, priority 2021, published 2024).

Read-outs that look alike come from different tables or passages of the source.

Assay [1] addresses KRAS protein containing G12D mutation (Homo sapiens (Human), UniProt P01116, G12D). As to the kind of experiment: SOS-catalyzed nucleotide exchange assay (GNE), TR-FRET. The settings on record: biotinylated KRAS G12D, SOS and GTP, 60-minute incubation. Type of assay: biochemical. How it is done: Compounds are added to this complex and then after a 60-minute incubation time the mixture is treated with SOS and unlabeled GTP. Small molecule inhibitors stabilize the Bodipy-GDP complex whereas the untreated protein rapidly exchanges Bodipy-GDP for unlabeled GTP resulting in reduced TR-FRET signal.
This solution is referred to as biotinylated KRAS G12D stock solution.
(In general: Time-resolved FRET reads energy transfer from a long-lived donor to a nearby acceptor.)

Assay [2] deals with AsPC-1 cells containing homozygous KRAS-G12D activating mutation. The assay is described as follows: Cellular phospho-ERK assay (Examples 1a-106). It counts as cell-based. The note with it: AsPC-1 cells, 2 hours, ratio of p-Erk vs total Erk, read-out: IC50 (nM) pERK (Cell). An excerpt: 5% CO? overnight. […] Assay plates were read on a EnVision Multimode Plate Reader (PerkinElmer) and the ratio of p-Erk vs total Erk in each well was used as the final readout.

For assay [3], the target named is KRAS G12D / Ras binding domain of C-RAF (Homo sapiens (Human), UniProt P01116, G12D). As to the kind of experiment: RAS:RAF-RBD binding assay (cRaf), TR-FRET. The settings on record: biotinylated KRAS G12D, GST-C-RAF RBD.
Chain of KRAS G12D / Ras binding domain of C-RAF (P01116 other isoform, or with tags, fused parts or gaps G12D (already in the parent)): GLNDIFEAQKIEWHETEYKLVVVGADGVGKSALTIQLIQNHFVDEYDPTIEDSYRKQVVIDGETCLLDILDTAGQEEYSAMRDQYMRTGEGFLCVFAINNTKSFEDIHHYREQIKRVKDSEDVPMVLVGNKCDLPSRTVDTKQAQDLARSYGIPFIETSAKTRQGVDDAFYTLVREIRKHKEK

Chain of KRAS protein containing G12D mutation (P01116 other isoform, or with tags, fused parts or gaps G12D (already in the parent)): as above

As usually defined, the IC50 is the concentration that gives 50% inhibition. Consider `COC1CC2CN(c3nc(OCC4(CN(C)C)CC4)nc4c(F)c(-c5cc(O)cc6ccccc56)c(Cl)cc34)CC1N2` [Example 26, 4-(6-chloro-2-((1-((dimethylamino)meth-yl)cyclo-propyl)methoxy)-8-fluoro-4-(R,R,6-methoxy-3,8-diazabi-cyclo[3.2.1]octan-3-yl)quinazolin-7-yl)naphthalen-2-ol], for which the half-maximal inhibitory concentration (IC50) in assay [1] is 358 nM; in assay [2] (Homo sapiens, ASPC1, 2 h) it was 10400 nM; in assay [3] (IC50 (nM) (cRaf)) it was 11800 nM.

As to `COC1CC2CN(c3nc(OCC4(CN(C)C)CC4)nc4c(F)c(-c5cc(O)cc6ccccc56)c(F)cc34)CC1N2` (stereo not drawn) [Example 25, 4-(2-((1-((dimethyl-amino)methyl)cyclo-propyl)methoxy)-6,8-difluoro-4-(6-methoxy-3,8-diazabicyclo[3.2.1]oc-tan-3-yl)quinazolin-7-yl)naphthalen-2-ol], the concentration for half-maximal inhibition (IC50) is 454 nM in assay [1]; 7070 nM in assay [2] (Homo sapiens, ASPC1, 2 h); 20300 nM in assay [3] (IC50 (nM) (cRaf)).

For the compound `Cc1cc(O)cc(-c2c(F)cc3c(N4CC5CCC(C4)N5)nc(OCC4(CN5CCOCC5)CC4)nc3c2F)c1SC(F)(F)F` [Example 49, 3-(4-(3,8-diazabicyclo[3.2.1]octan-3-yl)-6,8-difluoro-2-((1-(morpholinomethyl)cyclopropyl)methoxy)quinazolin-7-yl)-5-methyl-4-((trifluoromethyl)thio)phenol], the IC50 is 184 nM in assay [1]; 4990 nM in assay [2] (Homo sapiens, ASPC1, 2 h); 24700 nM in assay [3] (IC50 (nM) (cRaf)).

In the case of `CN(C)C[C@]1(COc2nc(N3CC4CCC(C3)N4)c3cc(Cl)c(-c4cc(O)cc5ccccc45)c(F)c3n2)CC1(F)F` (atropisomer, axis not shown) [Example 11b, 4-(4-(3.8-diazabicyclo[3.2.1]octan-3-yl)-6-chloro-2-(((S)-1-((dimethylamino)methyl)-2,2-difluorocyclopropyl)methoxy)-8-fluoroquinazolin-7-yl)naphthalen-2-ol], the IC50 in assay [1] stood at 131 nM; in assay [2] it was 6260 nM; in assay [3] (read-out: IC50 (nM) (cRaf)), 7240 nM.

As to `Cc1cc2[nH]ncc2c(-c2c(F)cc3c(N4C[C@H]5CC[C@@](C)(C4)N5)nc(OC[C@@]45CCCN4C[C@H](F)C5)nc3c2F)c1C(F)(F)F` [Ex 86, 6,8-difluoro-2-(((2R,7aS)-2-fluorotetrahydro-1H-pyrrolizin-7a(5H)-yl)methoxy)-7-(6-methyl-5-(trifluoromethyl)-1H-indazol-4-yl)-4-((1S,5R)-1-methyl-3,8-diazabicyclo [3.2.1]octan-3-yl)quinazoline], the concentration for half-maximal inhibition (IC50) in assay [1] was found to be 0.723 nM; in assay [2] (Homo sapiens, ASPC1, 2 h), 213 nM; in assay [3] (IC50 (nM) (cRaf)), 268 nM.

For `CCC12CCC(CN(c3nc(OCC4(CN(C)C)CC4)nc4c(F)c(-c5cc(O)cc6ccccc56)c(F)cc34)C1)N2` (stereo not drawn) [Example 33, 4-(2-((1-((dimethylamino)meth-yl)cyclopro-pyl)methoxy)-4-(1-ethyl-3,8-diazabicy-clo[3.2.1]octan-3-yl)-6,8-difluoroquinazolin-7-yl)naphthalen-2-ol], the concentration for half-maximal inhibition (IC50) was determined as 88.5 nM in assay [1]; 3450 nM in assay [2] (Homo sapiens, ASPC1, 2 h); 5070 nM in assay [3] (IC50 (nM) (cRaf)).

As for `Cc1cc2[nH]ncc2c(-c2c(F)cc3c(N4C[C@H]5CC[C@@](C)(C4)N5)nc(OC[C@@H]4C[C@@H](F)CN4C)nc3c2F)c1C(F)(F)F` [Example 67, 6,8-difluoro-2-(((2S,4R)-4-fluoro-1-methylpyrrolidin-2-yl)methoxy)-7-(6-methyl-5-(trifluoromethyl)-H-indazol-4-yl)-4-((1S,5R)-1-methyl-3,8-diazabicyclo[3.2.1]octan-3-yl)quinazoline], the half-maximal inhibitory concentration (IC50) in assay [1] was 173 nM; in assay [2] (Homo sapiens, ASPC1, 2 h) it was 2860 nM; in assay [3] (IC50 (nM) (cRaf)), 4040 nM.

On to `Oc1cc(-c2c(F)cc3c(N4CC5CC(O)C(C4)N5)nc(OCC4(CN5CCOCC5)CC4)nc3c2F)c2ccccc2c1` (single isomer, unassigned) [Example 17], for which the IC50 turned out to be 52.1 nM in assay [1], 7430 nM in assay [2] and 3260 nM in assay [3] (IC50 (nM) (cRaf)).

For `CN(C)CC1(COc2nc(N3CC4CCC(F)(C3)N4)c3cc(Cl)c(-c4cc(O)cc5ccccc45)c(F)c3n2)CC1` (stereo not drawn) [Example 34, 4-(6-chloro-2-((1-((dimethylamino)meth-yl)cyclopropyl)meth-oxy)-8-fluoro-4-(1-fluoro-3,8-diaza-bicyclo[3.2.1]octan-3-yl)quinaozlin-7-yl)naphthalen-2-ol], the 50% inhibitory concentration (IC50) in assay [1] turned out to be 2560 nM; in assay [2] (Homo sapiens, ASPC1, 2 h), 11500 nM; in assay [3] (IC50 (nM) (cRaf)), 38300 nM.

Take `C[C@]12CC[C@H](CN(c3nc(OCC4(CN5CC[C@@H](F)C5)CC4)nc4c3CCN(c3cccc5cccc(Br)c35)C4)C1)N2` [Ex. 93, 7-(8-bromonaphthalen-1-yl)-2-((1-(((R)-3-fluoropyrrolidin-1-yl)methyl)cyclopropyl)methoxy)-4-((1S,5R)-1-methyl-3,8-diazabicyclo[3.2.1]octan-3-yl)-5,6,7,8-tetrahydropyrido[3.4-d]pyrimidine]: the concentration for half-maximal inhibition (IC50) was determined as 437 nM in assay [1], 7130 nM in assay [2] and 35300 nM in assay [3] (read-out: IC50 (nM) (cRaf)).

Take `CN(C)CC1(COc2nc(N3C[C@@]4(C)CC[C@H]3CN4)c3cc(Cl)c(-c4cc(O)cc5ccccc45)c(F)c3n2)CC1` (single isomer, unassigned) [Example 38a]: the IC50 was found to be 45.2 nM in assay [1], 1280 nM in assay [2] and 617 nM in assay [3] (IC50 (nM) (cRaf)).

In the case of `CN1CCC[C@H]1COc1nc(N2CC3CCC(C2)N3)c2cc(Cl)c(-c3cc(O)cc4ccccc34)c(F)c2n1` [Ex. 5, 4-(4-(3.8-diazabicyclo[3.2.1]octan-3-yl)-6-chloro-8-fluoro-2-(((S)-1-methylpyrrolidin-2-yl)methoxy)quinazolin-7-yl)naphthalen-2-ol], the half-maximal inhibitory concentration (IC50) is 106 nM in assay [1], 6640 nM in assay [2] and 17300 nM in assay [3] (read-out: IC50 (nM) (cRaf)).

Turning to `CN(C)C[C@@]1(COc2nc(N3C[C@H]4CC[C@@](C)(C3)N4)c3cc(Cl)c(-c4c(F)cc(F)c5ccc(N)nc45)c(F)c3n2)CC1(F)F` (single isomer, unassigned) [92b], the values for the IC50 in assay [1], in assay [2] and in assay [3] (IC50 (nM) (cRaf)) were 236 nM, 5320 nM and 9210 nM, respectively.

In the case of `CN(C)CC1(COc2nc(N3C[C@H]4NC(C)(C[C@H]4O)C3)c3cc(Cl)c(-c4cc(O)cc5ccccc45)c(F)c3n2)CC1` (stereo in doubt) [Example 42, 3-(6-chloro-2-((1-((dimethylamino)methyl)cyclopropyl)methoxy)-8-fluoro-7-(3-hydroxynaphthalen-1-yl)quinazolin-4-yl)-1-methyl-3,8-diazabicyclo [3.2.1]octan-6-ol], the IC50 amounted to 17.5 nM in assay [1]; 8460 nM in assay [2] (Homo sapiens, ASPC1, 2 h); 20400 nM in assay [3] (IC50 (nM) (cRaf)).

For the compound `CN(C)CC1(COc2nc(N3C[C@@H]4C[C@H](O)C(C)(C3)N4)c3cc(Cl)c(-c4cc(O)cc5ccccc45)c(F)c3n2)CC1` (stereo in doubt) [Example 41, 3-(6-chloro-2-((1-((dimethylamino)methyl)cyclopropyl)methoxy)-8-fluoro-7-(3-hydroxynaphthalen-1-yl)quinazolin-4-yl)-5-methyl-3,8-diazabicyclo[3.2.1]octan-6-ol], the IC50 in assay [1] turned out to be 20.3 nM; in assay [2] (Homo sapiens, ASPC1, 2 h) it was 2840 nM; in assay [3] (IC50 (nM) (cRaf)), 1270 nM.

With `Cc1cc(N)nc(-c2c(F)cc3c(N4CC5CCC(C4)N5)nc(OCC4(CN5CCOCC5)CC4)nc3c2F)c1C(F)(F)F` [Ex. 87, 6-(4-(3.8-diazabicyclo[3.2.1]octan-3-yl)-6,8-difluoro-2-((1-(morpholinomethyl)cyclopropyl)methoxy)quinazolin-7-yl)-4-methyl-5-(trifluoromethyl)pyridin-2-amine], the figures for the IC50 in assay [1], in assay [2] and in assay [3] (read-out: IC50 (nM) (cRaf)) were 37.4 nM, 1340 nM and 11400 nM, respectively.

Regarding `Cc1cc2[nH]ncc2c(-c2c(F)cc3c(N4C[C@H]5CC[C@@](C)(C4)N5)nc(OC[C@]4(CN(C)C)CC4(F)F)nc3c2F)c1C(F)(F)F` (single isomer, unassigned) [Ex 76a], the results for the IC50 in assay [1], in assay [2] and in assay [3] (IC50 (nM) (cRaf)) were 12 nM, 593 nM and 1810 nM, respectively.

Take `Nc1nc2c(-c3c(Cl)cc4c(N5CC6CCC(C5)N6)nc(OCC5(CN6CCOCC6)CC5)nc4c3F)ccc(F)c2s1` [Example 62, 4-(4-(3,8-diazabicyclo[3.2.1]octan-3-yl)-6-chloro-8-fluoro-2-((1-(morpholinomethyl)cyclopropyl)methoxy)quinazolin-7-yl)-7-fluorobenzo[d]thiazol-2-amine]: the IC50 in assay [1] came to 3.83 nM; in assay [2] (Homo sapiens, ASPC1, 2 h), 1860 nM; in assay [3] (IC50 (nM) (cRaf)) it was 334 nM.

Consider `C[C@@]12CC(O)[C@@](C)(CN(c3nc(OC[C@@]45CCCN4C[C@H](F)C5)nc4c(F)c(-c5cc(O)cc6cccc(Cl)c56)c(F)cc34)C1)N2` (stereo partly drawn) [Example 106], for which the IC50 in assay [1] is 2.09 nM; in assay [2] it was 76.1 nM; in assay [3] (read-out: IC50 (nM) (cRaf)), 49.4 nM.

Regarding `CN(C)CC1(COc2nc(N3C[C@@H]4CC[C@H]3CN4)c3cc(F)c(-c4cc(O)cc5ccccc45)c(F)c3n2)CC1` [Example 7, 4-(4-((1S,4S)-2,5-diazabicyclo[2.2.2]octan-2-yl)-2-((1-((dimethylamino)methyl)cyclopropyl)methoxy)-6,8-difluoroquinazolin-7-yl)naphthalen-2-ol], the 50% inhibitory concentration (IC50) in assay [1] worked out at 35.5 nM; in assay [2] (Homo sapiens, ASPC1, 2 h), 5020 nM; in assay [3] (IC50 (nM) (cRaf)), 2990 nM.
